These results are taken from patent publication US10870647B2, “Imidazopyridine derivative, method for preparing same, and pharmaceutical composition containing same as active ingredient for preventing or treating cancer” (DAEGU-GYEONGBUK MEDICAL INNOVATION FOUNDATION, priority 2016, dated 2020).

Holding throughout (test): Kinase selectivity, scanMAX Kinase assay panel (DiscoverX), % control at 1 uM
Assay type in all cases: binding

Test [1] concerns the target T1, scanMAX Kinase assay panel (Homo sapiens, UniProt Q8TDC3).
T1 construct: purchased DiscoverX
T1 sequence (Q8TDC3 1-778): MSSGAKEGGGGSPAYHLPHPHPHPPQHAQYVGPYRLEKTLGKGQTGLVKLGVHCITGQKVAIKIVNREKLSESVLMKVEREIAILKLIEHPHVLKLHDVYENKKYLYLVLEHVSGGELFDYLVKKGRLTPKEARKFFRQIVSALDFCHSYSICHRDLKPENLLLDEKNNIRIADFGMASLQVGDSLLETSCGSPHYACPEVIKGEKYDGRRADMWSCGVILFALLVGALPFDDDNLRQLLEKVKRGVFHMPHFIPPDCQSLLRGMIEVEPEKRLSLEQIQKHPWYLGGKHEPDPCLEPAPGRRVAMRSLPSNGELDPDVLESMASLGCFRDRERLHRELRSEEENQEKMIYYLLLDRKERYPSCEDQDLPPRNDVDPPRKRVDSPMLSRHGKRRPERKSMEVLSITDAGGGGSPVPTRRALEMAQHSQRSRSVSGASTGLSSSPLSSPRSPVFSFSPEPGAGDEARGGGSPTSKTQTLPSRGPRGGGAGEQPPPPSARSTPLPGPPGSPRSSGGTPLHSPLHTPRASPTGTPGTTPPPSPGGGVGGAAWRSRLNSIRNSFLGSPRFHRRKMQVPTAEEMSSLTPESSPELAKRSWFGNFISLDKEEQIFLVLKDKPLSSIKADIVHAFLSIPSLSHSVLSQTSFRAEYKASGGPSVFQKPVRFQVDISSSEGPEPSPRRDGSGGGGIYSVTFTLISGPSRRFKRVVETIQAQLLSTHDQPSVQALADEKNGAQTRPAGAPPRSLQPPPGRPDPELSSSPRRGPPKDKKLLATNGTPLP
The settings on record: BRSK1; 1 uM; read-out: Percent Control (%). The essentials: (§1)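 Each kinase was first exposed to the test compound at 1 uM in DMSO. Signal was then normalised to positive and negative controls to give % control. Finally, any enzyme showing <35% control was judged inhibited.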

In test [2] the target is T2, scanMAX Kinase assay panel (Homo sapiens, UniProt Q15139).
T2 construct: purchased DiscoverX
T2 sequence (Q15139 1-912): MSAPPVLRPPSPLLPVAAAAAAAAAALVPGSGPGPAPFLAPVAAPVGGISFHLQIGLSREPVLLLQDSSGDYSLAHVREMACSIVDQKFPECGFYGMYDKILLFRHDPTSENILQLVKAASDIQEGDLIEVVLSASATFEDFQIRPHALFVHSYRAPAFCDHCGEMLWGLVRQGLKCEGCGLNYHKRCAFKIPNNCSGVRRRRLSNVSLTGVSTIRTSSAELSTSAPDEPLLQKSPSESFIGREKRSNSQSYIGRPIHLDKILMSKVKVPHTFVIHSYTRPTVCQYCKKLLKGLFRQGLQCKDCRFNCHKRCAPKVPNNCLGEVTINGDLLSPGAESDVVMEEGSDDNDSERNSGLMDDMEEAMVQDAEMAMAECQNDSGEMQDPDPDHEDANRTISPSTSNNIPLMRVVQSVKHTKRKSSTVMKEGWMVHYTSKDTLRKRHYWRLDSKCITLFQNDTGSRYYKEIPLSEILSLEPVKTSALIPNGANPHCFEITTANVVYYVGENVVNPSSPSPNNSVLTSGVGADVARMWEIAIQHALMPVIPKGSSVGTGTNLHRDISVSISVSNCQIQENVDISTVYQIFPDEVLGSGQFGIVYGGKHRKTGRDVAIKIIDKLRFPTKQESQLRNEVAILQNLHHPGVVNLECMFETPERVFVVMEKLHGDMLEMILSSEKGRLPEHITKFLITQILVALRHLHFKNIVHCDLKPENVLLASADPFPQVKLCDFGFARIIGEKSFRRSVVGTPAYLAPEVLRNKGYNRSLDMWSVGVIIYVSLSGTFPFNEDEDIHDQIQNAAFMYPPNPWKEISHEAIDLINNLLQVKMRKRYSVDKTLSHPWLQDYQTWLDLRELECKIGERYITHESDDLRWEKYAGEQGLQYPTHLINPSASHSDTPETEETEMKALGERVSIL
The settings on record: PRKD1; 1 uM; read-out: Percent Control (%). The essentials: as §1

For test [3], the target named is T3, scanMAX Kinase assay panel (Mycobacterium tuberculosis, UniProt P9WI81).
T3 construct: purchased DiscoverX
T3 sequence (P9WI81 whole entry): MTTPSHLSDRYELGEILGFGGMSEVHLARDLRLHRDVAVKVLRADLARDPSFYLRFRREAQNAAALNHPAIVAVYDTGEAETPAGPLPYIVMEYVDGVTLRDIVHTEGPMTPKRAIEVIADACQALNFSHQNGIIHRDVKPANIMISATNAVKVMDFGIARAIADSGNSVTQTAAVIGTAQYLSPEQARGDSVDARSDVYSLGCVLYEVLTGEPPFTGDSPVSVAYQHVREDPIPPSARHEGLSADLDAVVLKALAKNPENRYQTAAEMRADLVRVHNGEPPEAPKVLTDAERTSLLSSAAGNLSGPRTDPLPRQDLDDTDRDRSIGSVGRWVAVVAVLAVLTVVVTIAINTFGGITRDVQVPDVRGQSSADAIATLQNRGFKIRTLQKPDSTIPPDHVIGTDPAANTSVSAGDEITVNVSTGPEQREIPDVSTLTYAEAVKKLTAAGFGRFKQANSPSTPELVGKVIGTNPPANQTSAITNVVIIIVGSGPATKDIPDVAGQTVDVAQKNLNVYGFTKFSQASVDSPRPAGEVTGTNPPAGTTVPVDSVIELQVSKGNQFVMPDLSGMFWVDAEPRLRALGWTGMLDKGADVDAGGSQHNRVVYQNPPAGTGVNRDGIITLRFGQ
The note with it: read-out: Percent Control (%). Put shortly:
as §1

Test [4] concerns the target T4, scanMAX Kinase assay panel (Homo sapiens, UniProt P29376).
T4 construct: purchased DiscoverX
The settings on record: LTK; 1 uM; read-out: Percent Control (%). Put shortly:
as §1

The target in test [5] is T5, scanMAX Kinase assay panel (Homo sapiens, UniProt Q13188).
T5 construct: purchased DiscoverX
T5 sequence (Q13188 1-491): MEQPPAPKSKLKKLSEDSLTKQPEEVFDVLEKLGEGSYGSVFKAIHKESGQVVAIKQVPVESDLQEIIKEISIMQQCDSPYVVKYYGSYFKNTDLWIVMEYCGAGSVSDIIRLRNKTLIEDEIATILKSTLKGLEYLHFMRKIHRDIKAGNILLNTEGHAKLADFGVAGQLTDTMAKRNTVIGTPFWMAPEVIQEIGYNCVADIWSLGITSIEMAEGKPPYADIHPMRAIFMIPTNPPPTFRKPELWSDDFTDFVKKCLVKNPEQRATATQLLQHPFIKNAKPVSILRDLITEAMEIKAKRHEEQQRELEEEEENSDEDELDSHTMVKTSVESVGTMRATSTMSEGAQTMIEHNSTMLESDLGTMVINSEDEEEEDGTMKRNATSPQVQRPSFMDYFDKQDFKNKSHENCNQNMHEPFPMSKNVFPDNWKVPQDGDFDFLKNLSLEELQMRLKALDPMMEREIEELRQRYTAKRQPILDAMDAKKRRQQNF
The note with it: MST2; 1 uM; read-out: Percent Control (%). Put shortly:
as §1

SMILES strings stand for the structures.

T4 sequence (P29376 17-864): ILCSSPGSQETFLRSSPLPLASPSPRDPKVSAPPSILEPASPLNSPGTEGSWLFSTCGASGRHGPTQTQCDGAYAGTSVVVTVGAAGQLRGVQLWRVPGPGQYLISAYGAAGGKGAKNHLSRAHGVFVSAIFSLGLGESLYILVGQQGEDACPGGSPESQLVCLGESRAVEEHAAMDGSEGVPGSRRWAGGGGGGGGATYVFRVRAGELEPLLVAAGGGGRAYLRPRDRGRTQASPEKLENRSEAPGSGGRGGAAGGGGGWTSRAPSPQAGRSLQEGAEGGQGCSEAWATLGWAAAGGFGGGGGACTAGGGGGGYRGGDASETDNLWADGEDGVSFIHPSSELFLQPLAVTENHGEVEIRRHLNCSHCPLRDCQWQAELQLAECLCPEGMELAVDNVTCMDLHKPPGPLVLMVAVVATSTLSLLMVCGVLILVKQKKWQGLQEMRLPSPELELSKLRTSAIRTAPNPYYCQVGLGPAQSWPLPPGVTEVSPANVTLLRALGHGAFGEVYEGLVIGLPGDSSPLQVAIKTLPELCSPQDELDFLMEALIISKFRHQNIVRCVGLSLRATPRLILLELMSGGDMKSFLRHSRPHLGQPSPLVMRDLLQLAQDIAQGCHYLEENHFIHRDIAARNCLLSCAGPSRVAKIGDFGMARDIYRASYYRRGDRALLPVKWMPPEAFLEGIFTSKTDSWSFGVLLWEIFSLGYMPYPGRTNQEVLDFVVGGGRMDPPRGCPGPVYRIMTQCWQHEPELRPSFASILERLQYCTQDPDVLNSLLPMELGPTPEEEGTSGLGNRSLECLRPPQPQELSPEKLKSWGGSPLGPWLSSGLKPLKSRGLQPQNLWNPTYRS

As for `Cc1ccc(C(=O)Nc2ccc(CN3CCN(C)CC3)c(C(F)(F)F)c2)cc1C#Cc1cnc2c(Nc3cnn(C)c3)cccn12` [Example 1, 4-methyl-3-((8-((1-methyl-1H-pyrazol-4-yl)amino)imidazo[1,2-a]pyridin-3-yl)ethynyl)-N-(4-((4-methylpiperazin-1-yl)methyl)-3-(trifluoromethyl)phenyl)benzamide], the remaining binding at 1 µM was found to be 100% in test [1]; 54% in test [2]; 95% in test [3]; 9% in test [4]; 5% in test [5].

In the case of `Cc1cn(-c2cc(NC(=O)c3ccc(C)c(C#Cc4cnc5c(Nc6cnn(C)c6)cccn45)c3)cc(C(F)(F)F)c2)cn1` [Example 12, 4-methyl-N-(3-(4-methyl-1H-imidazol-1-yl)-5-(trifluoromethyl)phenyl)-3-((8-((1-methyl-1H-pyrazol-4-yl)amino)imidazo[1,2-a]pyridin-3-yl)ethynyl)benzamide], the remaining binding at 1 µM in test [1] came to 83%; in test [2], 94%; in test [3] it was 100%; in test [4], 12%; in test [5] it was 100%.

On to `Cc1ccc(NC(=O)C2(C(=O)Nc3ccc(F)cc3)CC2)cc1C#Cc1cnc2c(Nc3cnn(C(C)C)c3)cccn12` [Example 78], for which the remaining binding at 1 µM in test [1] turned out to be 100%; in test [2] it was 100%; in test [3], 97%; in test [4], 94%; in test [5] it was 85%.
